Reference: US8193377B2, “(−)-epigallocatechin gallate derivatives for inhibiting proteasome” (The Hong Kong Polytechnic University, priority 2004, dated 2012)

Key:
[1] = tested on: ubiquitin-conjugated proteins in LNCaP cells; test: Western blot for ubiquitin-conjugated proteins in LNCaP cells; type: cell-based, human; settings: 25 μM, 24 h
Protocol: (§1) Whole cells extracts were prepared as described previously (An B, Goldfarb R H, Siman R, Dou Q P. Novel dipeptidyl proteasome inhibitors overcome Bc1-2 protective function and selectively accumulate the cyclin-dependent kinase inhibitor p27 and induce apoptosis in transformed, but not normal, human fibroblasts. Cell Death Differ 1998; 5: 1062-75.). Analysis of Bax, IKBa, p27, PAW, and ubiquitinated protein expression were performed using monoclonal or polyclonal antibodies according to previously reported protocols (An B et. al.).
To determine if acetate-protected analogs are potent proteasome inhibitors in other cancer cell systems, prostate cancer LNCaP cells were treated for 24 h with 25 μM of (−)-EGCG, 1, 2a, or 3a, with DMSO as a control.

Jurkat T cells [2] = test: Western blot for PARP cleavage in Jurkat T cells; type: cell-based, human; settings: 25 μM, 24 h
Protocol: as §1
(§2) It has been shown that proteasome inhibition can induce apoptosis in a wide variety of cancer cells, but not in normal, non-transformed cells (An B et al). Jurkat T cells are treated with 25 μM of each of the selected polyphenols and their protected analogs for 24 h to investigate their abilities to induce apoptotic cell death. […] The unprotected 2 induced much less apoptosis (21%), while 25 μM VP-16, used as a positive control, induced 92% apoptosis (FIGS. 10C and 10D). Counterstain with DAPI, which binds to the minor groove in A-T rich regions of DNA, was decreased drastically in apoptotic cells (FIG. 10C), consistent with DNA fragmentation in late stage apoptosis.
To determine if the cell death observed (FIG. 16) was due to the induction of apoptosis, a similar experiment was performed in Jurkat T cells, followed by measurement of caspase-3 activation and PARP cleavage.

[3] = tested on: ubiquitinated proteins, Bax, p27, IκBα in Jurkat T cells; test: Western blot for ubiquitinated proteins and proteasome targets (Bax, p27, IκBα) in Jurkat T cells; type: cell-based, human; settings: 25 μM, 24 h
Protocol: as §1
To determine what effects the synthetic tea analogs had on the proteasome in vivo, Jurkat cells were treated with 25 μM of each synthetic compound for either 4 or 24 h, with (−)-EGCG as a control (FIGS. 9A and 9B). […] This is consistent with the idea that protected analogs are potent inhibitors of the proteasome at an earlier time point and that after 24 h of treatment the ubiquitinated proteins are being depleted by deubiquitinating enzymes. […] The putative ubiquitinated IκBα band is still found in cells treated with 2a, 3a, and 4a (FIG. 9B, Lanes 9, 5, 7). The presumed ubiquinated IκBα band is now absent in the 24 h treatment, possibly due to deubiquitination (FIG. 9B). Actin was used as a loading control in this experiment.
The pro-apoptotic protein Bax and the cyclin-dependent kinase inhibitor p27 are natural proteasome targets. If the peracetate-protected polyphenols inhibit the intact proteasome activity, we would expect accumulation of Bax and p27 in these cells. To test this idea, Jurkat T cells were treated with both protected and unprotected compounds and lysates were analyzed by Western blot using specific antibodies to Bax and p27 (FIG. 15). After 4 h of treatment, the peracetate-protected analogs 24* and 19*, but not their unprotected analogs, were able to increase accumulation of both Bax (by 3- and 2.5-fold, respectively) and p27 (6- and 11-fold, respectively) (FIG. 15A). After 24 h treatment, Bax levels were increased in cells treated with all of the peracetate-protected compounds (13-, 12-, 40- and 36-fold, respectively, by 24*, 19*, 21* and 23*).

VA-13 cells [4] = test: Nuclear staining (Hoechst) for apoptotic morphology, VA-13; type: cell-based, human; settings: 25 μM, 24 h
Protocol: After each drug treatment, both detached and attached VA-13 and WI-38 cells were stained Hoechst 33342 to assess for apoptosis. Briefly, cells were washed 2× in PBS, fixed for 1 h with 70% ethanol at 4° C., washed 3× in PBS, and stained with […] Hoechst for 30 min in the dark at room temperature. Detached cells were plated on a slide and attached cells were visualized on the plate with a fluorescent microscope at 10× or 40× resolution (Zeiss, Germany). Digital Scientific obtained images with AxioVision 4.1 and adjusted using Adobe Photoshop 6.0.
Next, apoptotic nuclear morphology is examined after treatment with natural (−)-EGCG, 2, and 2a (FIG. 12B). […] A comparison among all the protected analogs was then performed using 25 μM for 24 h. […] All of the protected analogs induced apoptosis in transformed (VA-13), but not normal (WI-38) cells (FIGS. 12B and 12C).

Jurkat T cells [5] = test: Trypan blue cell death assay in Jurkat T cells; type: cell-based, human; settings: 25 μM, 24 h
LNCaP cells [6] = test: Soft agar colony formation assay; type: cell-based, human; settings: 25 μM once at plating, 21 days
YT cells = test: Western blot in non-transformed natural killer YT cells compared with Jurkat T cells; type: cell-based, human; settings: 25 μM, 24 h
MCF-7 cells = test: MTT assay; type: cell-based, human; settings: 24 h
Protocol: MTT was used to determine effects of polyphenols on overall proliferation of tumor cells. Human breast MCF-7 cells were plated in a 96 well plate and grown to 70-80% confluency, followed by addition of analogs for 24 h. MTT (1 mg/ml) in PBS was then added to wells and incubated at 37° C. for 4 hours to allow for complete cleavage of the tetrazolium salt by metabolically active cells. Next, the MTT was removed and 100 μl of DMSO was added and colorimetric analysis performed using a multilabel plate reader at 560 nm (Victor^3; Perkin Elmer). Absorbance values plotted are the mean from triplicate experiments.
Treated breast cancer (MCF-7) cells were then treated with 5 or 25 μM of peracetate-protected analogs for 24 h, followed by MTT analysis to determine their effects on cell proliferation. Compound 1 at 25 μM inhibited cellular proliferation by 40% (FIG. 11A).

VA-13 cells [7] = test: Immunostaining of apoptotic cells with anti-cleaved PARP-FITC; type: cell-based, human; settings: 25 μM, 24 h
Protocol: Immunostaining of apoptotic cells was performed by addition of a FITC-conjugated polyclonal antibody that recognizes cleaved poly(ADP-ribose) polymerase (PARP) and visualized on an Axiovert 2 5 (Zeiss; Thornwood, N.Y.) microscope. Cells were grown to about 80% confluency in 60 mm dishes. VA-13 cells were then treated with VP-16, 2, or 2a (25 μM) for 24 h. Following treatment, both suspension and adhering cells were collected and washed twice in PBS pH 7.4. The cells were washed between all steps listed below and all washes are 1 min duration with PBS. Cells were then fixed in ice-cold 70% ethanol, permeabilized in 0.1% Triton-X-100 and blocked for 30 min in 1% bovine serum albumin (BSA) at room temperature. Incubation with the primary FITC-conjugated-p85/PARP antibody was for 30 min at 4° C. in the dark with mild shaking. Cell suspension was then transferred to glass slides in the presence of Vector Shield mounting medium with DAPI. Images were captured using AxioVision 4.1 and adjusted using Adobe Photoshop 6.0 software. Cell death was quantified by counting the number of apoptotic cells over the total number of cells in the same field. Data are mean of duplicate experiments ±SD.
as §2

LNCaP cells [8] = test: Apoptotic morphological changes, phase contrast; type: cell-based, human; settings: 25 μM, 24 h
[9] = molecular target: T1, proteasome in VA-13 cells (Homo sapiens, UniProt P28074); test: Chymotrypsin-like proteasome activity in intact VA-13 cells; type: cell-based; settings: 25 μM, 24 h
T1 construct: endogenous in cells; host or cells: VA-13 (SV40-transformed human fibroblasts)
Protocol: VA-13 or WI-38 cells were grown in 24 well plates (2 ml/well) to 70-80% confluency, followed by 24 h treatment with […] (−)-EGCG, 2, or 2a. […] Suc-Leu-Leu-Val-Tyr-AMC substrate was then added for 2.5 h at 37° C. and the chyrnotrypsin-like activity was measured as described above. Alternatively, cells were treated with each compound at 25 μM for 4 or 24 h, and harvested and lysed. Suc-Leu-Leu-Val-Tyr-AMC (40 μM) was then incubated with the prepared cell lysates for 2.5 h and the chymotrypsin-like activity was measured as described above.
The ability to induce apoptosis in tumor cells, but not normal cells is an important measure for novel anti-cancer drugs. To determine whether the protected compounds also affect normal cells, both VA-13 and WI-38 cells were treated with 25 μM of (−)-EGCG, 2, or 2a for 24 h and examined proteasome activity, nuclear morphological changes, and detachment. A differential decrease was found in the chyrnotrypsin-like activity of the proteasome in VA-13 cells over normal WI-38 cells (FIG. 12A). […] Conversely, the proteasome activity in WI-38 cells was decreased by only −5% with all three polyphenol treatments.

For CC(=O)Oc1cccc(C(=O)O[C@@H]2Cc3c(OC(C)=O)cc(OC(C)=O)cc3O[C@H]2c2cc(OC(C)=O)c(OC(C)=O)c(OC(C)=O)c2)c1 (relative stereo) [Compound 2a, (2S*,3R*)-trans-5,7-Bis(acetyloxy)-2-[3,4,5-tris(acetyloxy)phenyl]chroman-3-yl 3-acetyloxybenzoate], which ubiquitin-conjugated proteins [1] is on record?
Its ubiquitin-conjugated proteins is “greatest increase”.

And the “apoptosis-specific PARP cleavage” value (Jurkat T cells [2])?
The value was “induced apoptosis-specific PARP cleavage”.

And the “accumulation of p27” value [3]?
Its value is “Accumulation of p27”.

And the apoptotic nuclear morphology (VA-13 cells [4])?
Its apoptotic nuclear morphology is “markedly induced apoptosis”.

What about the “cell death (trypan blue)” value (Jurkat T cells [5]) of the same compound?
The value was 99%.

And the “colony formation in soft agar” value (LNCaP cells [6])?
Its value is “most potent inhibitors of colony formation”.

What about the “apoptosis (PARP cleavage), Jurkat T versus YT cells” value (YT cells) of the same compound?
The value was “only Jurkat cells underwent apoptosis”.

What about the “inhibition of cellular proliferation” value (MCF-7 cells; 5 μM) of the same compound?
Its value is 50%.

What about the “inhibition of cellular proliferation” value (MCF-7 cells; 25 μM) of the same compound?
The value was 70%.

And the “apoptotic cells (p85 cleaved PARP)” value (VA-13 cells [7])?
The value was 73%.

And the apoptotic morphological changes (LNCaP cells [8])?
Its apoptotic morphological changes is “dramatic round-up, detachment, and cellular fragmentation”.

And the “decrease in proteasome chymotrypsin-like activity” value [9]?
The value was 92%.

How did the ubiquitin-conjugated proteins [1] turn out when CC(=O)Oc1ccc(C(=O)O[C@@H]2Cc3c(OC(C)=O)cc(OC(C)=O)cc3O[C@H]2c2cc(OC(C)=O)c(OC(C)=O)c(OC(C)=O)c2)cc1 (relative stereo) [Compound 3a, (2S*,3R*)-trans-5,7-Bis(acetyloxy)-2-[3,4,5-tris(acetyloxy)phenyl]chroman-3-yl 4-(acetyloxy)benzoate] was run?
Its ubiquitin-conjugated proteins is “greatest increase”.

And the “apoptosis-specific PARP cleavage” value (Jurkat T cells [2])?
Its value is “induced apoptosis-specific PARP cleavage”.

And the “accumulation of p27” value [3]?
Its value is “Accumulation of p27”.

And the “cell death (trypan blue)” value (Jurkat T cells [5])?
The value was 57%.

What about the “inhibition of cellular proliferation” value (MCF-7 cells; 5 μM) of the same compound?
Its value is 50%.

And the “inhibition of cellular proliferation” value (MCF-7 cells; 25 μM)?
Its value is 70%.

What about the apoptotic morphological changes (LNCaP cells [8]) of the same compound?
Its apoptotic morphological changes is “dramatic round-up, detachment, and cellular fragmentation”.
